# Assay results from patent publication US8012963B2, “3,4-dihydro-2H-benzo[1,4]oxazine and thiazine derivatives as CETP inhibitors” (Janssen Pharmaceutica N.V., priority 2006, dated 2011).
# pIC50: −log10 of the molar value. Where “and” joins values, the source holds several entries; their conditions need not be identical. Equal entries are not always repeated.
# Assays:
# CETP = biological target: T1, CETP (Homo sapiens, UniProt P11597); test: CETP in vitro assay ([3H]CE-HDL transfer, Amersham kit TRKQ7005; modified protocol in human plasma); assay type: biochemical; conditions: multiple values = multiple measurements; for inhibition at 1 µM / % Inhibition @ 1 μM: 1 μM compound
# T1 construct: from tissue; host or cells: human plasma from normal volunteers
# T1 sequence (P11597 18-493): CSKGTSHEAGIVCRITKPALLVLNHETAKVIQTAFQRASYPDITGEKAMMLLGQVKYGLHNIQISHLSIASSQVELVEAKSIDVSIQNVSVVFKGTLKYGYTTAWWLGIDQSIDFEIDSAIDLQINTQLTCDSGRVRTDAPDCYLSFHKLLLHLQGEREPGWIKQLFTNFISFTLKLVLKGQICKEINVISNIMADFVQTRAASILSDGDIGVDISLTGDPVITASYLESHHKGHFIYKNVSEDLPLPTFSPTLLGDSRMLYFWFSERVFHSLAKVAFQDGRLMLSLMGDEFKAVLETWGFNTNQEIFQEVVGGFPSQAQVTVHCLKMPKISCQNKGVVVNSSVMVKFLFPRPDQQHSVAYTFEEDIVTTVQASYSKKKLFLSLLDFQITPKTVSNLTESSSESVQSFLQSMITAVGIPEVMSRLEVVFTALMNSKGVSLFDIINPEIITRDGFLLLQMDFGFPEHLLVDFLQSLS
# How it was run: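 Normal-volunteer human plasma was incubated ≥4 hr at 37 °C with approx. 25 μg/ml [3H]CE-HDL and compound in DMSO, with a 4 °C blank for non-specific transfer. HDL was separated by Dextralip/MgCl2 precipitation and centrifugation, then supernatant radioactivity counted. IC50 came from % control versus concentration.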
# cholesterol-fed hamsters = test: CETP in vivo assay: lipid parameters in cholesterol-fed hamsters; set-up: species or system hamster; conditions: plasma, mean ± SEM
# Experimental: To determine the in vivo efficacy of a test compound, hamsters are first fed a moderately high cholesterol diet (Research Diets, D5012801) for two weeks before commencing treatment. The animals are orally gavaged with the vehicle (10% solutol, 5% ethanol, 85% D5W) and test compound for 5 days with the last dose being administered 2 hrs before sacrifice. Plasma is obtained and lipid parameters (HDL-C, LDL-C, Total Cholesterol, Triglycerides) are measured.
# rabbits [1] = conditions: 30 mg/kg; cited from earlier work
# rabbits [2] = conditions: rabbits with severe hypercholesterolemia; cited from earlier work
# [3] = clinical studies; cited from earlier work
compound,measurement,setting,value
"O[C@@H](CN1c2cccc(-c3cccc(OC(F)(F)F)c3)c2OC[C@@H]1c1cccc(OC(F)(F)C(F)F)c1)C(F)(F)F [Compound 3, 4H-1,4-Benzoxazine-4-ethanol, 2,3-dihydro-3-[3-(1,1,2,2-tetrafluoroethoxy)phenyl]-8-[3-(trifluoromethoxy)phenyl]-α-(trifluoromethyl)-, (3S,αS)—]",inhibition at 1 µM,CETP,91%
same,pIC50,CETP,7.59
same,HDL,cholesterol-fed hamsters; 3 mg/kg oral gavage 5 days,136 ± 6 mg/dL
same,HDL-C/LDL Ratio,cholesterol-fed hamsters; 3 mg/kg oral gavage 5 days,3.7 ± 0.2
same,LDL,cholesterol-fed hamsters; 3 mg/kg oral gavage 5 days,36 ± 3 mg/dL
same,Total Cholesterol,cholesterol-fed hamsters; 3 mg/kg oral gavage 5 days,207 ± 7 mg/dL
same,Triglycerides,cholesterol-fed hamsters; 3 mg/kg oral gavage 5 days,278 ± 21 mg/dL
same,HDL,cholesterol-fed hamsters; 10 mg/kg oral gavage 5 days,158 ± 10 mg/dL
same,HDL-C/LDL Ratio,cholesterol-fed hamsters; 10 mg/kg oral gavage 5 days,5.2 ± 0.4
same,LDL,cholesterol-fed hamsters; 10 mg/kg oral gavage 5 days,30 ± 2 mg/dL
same,Total Cholesterol,cholesterol-fed hamsters; 10 mg/kg oral gavage 5 days,217 ± 12 mg/dL
same,Triglycerides,cholesterol-fed hamsters; 10 mg/kg oral gavage 5 days,282 ± 16 mg/dL
same,HDL,cholesterol-fed hamsters; 30 mg/kg oral gavage 5 days,167 ± 5 mg/dL
same,HDL-C/LDL Ratio,cholesterol-fed hamsters; 30 mg/kg oral gavage 5 days,6.2 ± 0.3
same,LDL,cholesterol-fed hamsters; 30 mg/kg oral gavage 5 days,27 ± 2 mg/dL
same,Total Cholesterol,cholesterol-fed hamsters; 30 mg/kg oral gavage 5 days,226 ± 5 mg/dL
same,Triglycerides,cholesterol-fed hamsters; 30 mg/kg oral gavage 5 days,300 ± 36 mg/dL
"OC(CN1c2cccc(-c3cccc(OC(F)(F)F)c3)c2OCC1c1ccco1)C(F)(F)F (centres unmarked) [Compound 89, 1,1,1-Trifluoro-3-[3-furan-2-yl-8-(3-trifluoromethoxy-phenyl)-2,3-dihydro-benzo[1,4]oxazin-4-yl]-propan-2-ol]",inhibition at 1 µM,CETP,17%
"OC(CN1c2cccc(-c3cccc(OC(F)(F)F)c3)c2OCC1c1ccco1)C(F)(F)F (centres unmarked) [Compound 90, 1,1,1-Trifluoro-3-[3-furan-2-yl-8-(3-trifluoromethoxy-phenyl)-2,3-dihydro-benzo[1,4]oxazin-4-yl]-propan-2-ol]",% Inhibition @ 1 μM,CETP,17%
"OC(CN1c2cccc(-c3cccc(OC(F)(F)F)c3)c2OCC1c1ccccc1OC(F)(F)C(F)F)C(F)(F)F (centres unmarked) [Compound 91, 1,1,1-Trifluoro-3-[3-[2-(1,1,2,2-tetrafluoro-ethoxy)-phenyl]-8-(3-trifluoromethoxy-phenyl)-2,3-dihydro-benzo[1,4]oxazin-4-yl]-propan-2-ol]",% Inhibition @ 1 μM,CETP; 1 µM,6%
"OC(CN1c2cccc(-c3cccc(OC(F)(F)F)c3)c2OCC1c1ccccc1OC(F)(F)C(F)F)C(F)(F)F (centres unmarked) [Compound 92, 1,1,1-Trifluoro-3-[3-[2-(1,1,2,2-tetrafluoro-ethoxy)-phenyl]-8-(3-trifluoromethoxy-phenyl)-2,3-dihydro-benzo[1,4]oxazin-4-yl]-propan-2-ol]",% Inhibition @ 1 μM,CETP; 1 µM,1%
"OC(CN1c2cccc(-c3cccc(OC(F)(F)F)c3)c2OCC1c1ccc(OC(F)(F)C(F)F)cc1)C(F)(F)F (centres unmarked) [Compound 93, 1,1,1-Trifluoro-3-[3-[4-(1,1,2,2-tetrafluoro-ethoxy)-phenyl]-8-(3-trifluoromethoxy-phenyl)-2,3-dihydro-benzo[1,4]oxazin-4-yl]propan-2-ol]",% Inhibition @ 1 μM,CETP; 1 µM,33%
"OC(CN1c2cccc(-c3cccc(OC(F)(F)F)c3)c2OCC1c1ccc(OC(F)(F)C(F)F)cc1)C(F)(F)F (centres unmarked) [Compound 94, 1,1,1-Trifluoro-3-[3-[4-(1,1,2,2-tetrafluoro-ethoxy)-phenyl]-8-(3-trifluoromethoxy-phenyl)-2,3-dihydro-benzo[1,4]oxazin-4-yl]propan-2-ol]",% Inhibition @ 1 μM,CETP; 1 µM,11%
"OC(CN1c2cccc(-c3cccc(OC(F)(F)F)c3)c2OCC1c1ccccc1)C(F)(F)F (centres unmarked) [Compound 95, 1,1,1-Trifluoro-3-[3-phenyl-8-(3-trifluoromethoxy-phenyl)-2,3-dihydro-benzo[1,4]oxazin-4-yl]-propan-2-ol]",% Inhibition @ 1 μM,CETP; 1 µM,43%
"OC(CN1c2cccc(-c3cccc(OC(F)(F)F)c3)c2OCC1c1ccccc1)C(F)(F)F (centres unmarked) [Compound 96, 1,1,1-Trifluoro-3-[3-phenyl-8-(3-trifluoromethoxy-phenyl)-2,3-dihydro-benzo[1,4]oxazin-4-yl]-propan-2-ol]",% Inhibition @ 1 μM,CETP; 1 µM,1%
"OC(CN1c2cccc(-c3cccc(OC(F)(F)F)c3)c2OCC1c1ccc(OC(F)(F)F)cc1)C(F)(F)F (centres unmarked) [Compound 97, 1,1,1-Trifluoro-3-[3-(4-trifluoromethoxy-phenyl)-8-(3-trifluoromethoxy-phenyl)-2,3-dihydro-benzo[1,4]oxazin-4-yl]-propan-2-ol]",% Inhibition @ 1 μM,CETP; 1 µM,38%
"OC(CN1c2cccc(-c3cccc(OC(F)(F)F)c3)c2OCC1c1ccc(OC(F)(F)F)cc1)C(F)(F)F (centres unmarked) [Compound 98, 1,1,1-Trifluoro-3-[3-(4-trifluoromethoxy-phenyl)-8-(3-trifluoromethoxy-phenyl)-2,3-dihydro-benzo[1,4]oxazin-4-yl]-propan-2-ol]",% Inhibition @ 1 μM,CETP; 1 µM,10%
"COc1cccc(C2COc3c(-c4cccc(OC(F)(F)F)c4)cccc3N2CC(O)C(F)(F)F)c1 (centres unmarked) [Compound 99, 1,1,1-Trifluoro-3-[3-(3-methoxy-phenyl)-8-(3-trifluoromethoxy-phenyl)-2,3-dihydro-benzo[1,4]oxazin-4-yl]-propan-2-ol]",% Inhibition @ 1 μM,CETP; 1 µM,29%
"COc1cccc(C2COc3c(-c4cccc(OC(F)(F)F)c4)cccc3N2CC(O)C(F)(F)F)c1 (centres unmarked) [Compound 100, 1,1,1-Trifluoro-3-[3-(3-methoxy-phenyl)-8-(3-trifluoromethoxy-phenyl)-2,3-dihydro-benzo[1,4]oxazin-4-yl]-propan-2-ol]",% Inhibition @ 1 μM,CETP; 1 µM,6%
"OC(CN1c2cccc(-c3cccc(OC(F)(F)F)c3)c2OCC1c1cccc(Cl)c1)C(F)(F)F (centres unmarked) [Compound 101, 3-[3-(3-Chloro-phenyl)-8-(3-trifluoromethoxy-phenyl)-2,3-dihydro-benzo[1,4]oxazin-4-yl]-1,1,1-trifluoro-propan-2-ol]",% Inhibition @ 1 μM,CETP; 1 µM,61% and 63%
same,pIC50,CETP,6.67
"OC(CN1c2cccc(-c3cccc(OC(F)(F)F)c3)c2OCC1c1cccc(Cl)c1)C(F)(F)F (centres unmarked) [Compound 102, 3-[3-(3-Chloro-phenyl)-8-(3-trifluoromethoxy-phenyl)-2,3-dihydro-benzo[1,4]oxazin-4-yl]-1,1,1-trifluoro-propan-2-ol]",% Inhibition @ 1 μM,CETP; 1 µM,0%
"OC(CN1c2cccc(-c3cccc(OC(F)(F)F)c3)c2OCC1c1cccs1)C(F)(F)F (centres unmarked) [Compound 103, 1,1,1-Trifluoro-3-[3-thiophen-2-yl-8-(3-trifluoromethoxy-phenyl)-2,3-dihydro-benzo[1,4]oxazin-4-yl]-propan-2-ol]",% Inhibition @ 1 μM,CETP; 1 µM,20%
"OC(CN1c2cccc(-c3cccc(OC(F)(F)F)c3)c2OCC1c1cccs1)C(F)(F)F (centres unmarked) [Compound 104, 1,1,1-Trifluoro-3-[3-thiophen-2-yl-8-(3-trifluoromethoxy-phenyl)-2,3-dihydro-benzo[1,4]oxazin-4-yl]-propan-2-ol]",% Inhibition @ 1 μM,CETP; 1 µM,0%
"OC(CN1c2cccc(-c3cccc(OC(F)(F)F)c3)c2OCC1c1ccoc1)C(F)(F)F (centres unmarked) [Compound 105, 1,1,1-Trifluoro-3-[3-furan-3-yl-8-(3-trifluoromethoxy-phenyl)-2,3-dihydro-benzo[1,4]oxazin-4-yl]-propan-2-ol]",% Inhibition @ 1 μM,CETP; 1 µM,2%
"OC(CN1c2cccc(-c3cccc(OC(F)(F)F)c3)c2OCC1c1ccoc1)C(F)(F)F (centres unmarked) [Compound 106, 1,1,1-Trifluoro-3-[3-furan-3-yl-8-(3-trifluoromethoxy-phenyl)-2,3-dihydro-benzo[1,4]oxazin-4-yl]-propan-2-ol]",% Inhibition @ 1 μM,CETP; 1 µM,0%
O[C@@H](CN1c2cccc(-c3cccc(OC(F)(F)F)c3)c2SC[C@@H]1c1cccc(OC(F)(F)C(F)F)c1)C(F)(F)F [Compound 107],% Inhibition @ 1 μM,CETP; 1 µM,59% and 87%
same,pIC50,CETP,6.87 and 6.70
O[C@@H](CN1c2cccc(-c3cccc(OC(F)(F)F)c3)c2SC[C@H]1c1cccc(OC(F)(F)C(F)F)c1)C(F)(F)F [Compound 108],inhibition at 1 µM,CETP,34%
same,% Inhibition @ 1 μM,CETP; 1 µM,39%
same,pIC50,CETP,< 5.53
CCC(CC)CC1(C(=O)Nc2ccccc2SC(=O)C(C)C)CCCCC1 [JTT-705],CETP activity,rabbits [1],inhibited CETP activity
same,change of HDL-C,rabbits [1],+90%
same,change of lesion size,rabbits [1],−70%
same,change of non-HDL-C cholesterol,rabbits [1],−50%
same,plasma triglycerides,rabbits [2],significant elevations of plasma triglycerides
same,prevention of lesion development,rabbits [2],not efficacious in preventing lesion development
same,HDL-C,[3],raise HDL-C
same,LDL-C,[3],modestly lower LDL-C
same,triglyceride levels,[3],not alter triglyceride levels
